{
  "source": "patent US20120282187A1",
  "about": "(BOEHRINGER INGELHEIM INTERNATIONAL GMBH, priority 2008, published 2012)",
  "origin": "cited, not measured here",
  "key": {"[1]": {"tested_on": "patients with atrial fibrillation", "details": "sub-cutaneous; cited from earlier work"}, "[2]": {"tested_on": "patients with non-valvular atrial fibrillation", "details": "in vivo; cited from earlier work"}},
  "data": [
    {"compound": "CO[C@H]1O[C@H](COS(=O)(=O)O)[C@@H](O[C@@H]2O[C@@H](C(=O)O)[C@@H](O[C@H]3O[C@H](COS(=O)(=O)O)[C@@H](O[C@@H]4O[C@H](C(=O)O)[C@@H](O[C@H]5O[C@H](COS(=O)(=O)O)[C@@H](OC)[C@H](OC)[C@H]5OC)[C@H](OC)[C@H]4OC)[C@H](OS(=O)(=O)O)[C@H]3OS(=O)(=O)O)[C@H](OC)[C@H]2OC)[C@H](OS(=O)(=O)O)[C@H]1OS(=O)(=O)O", "note": "[idraparinux]", "values": [
      {"measurement": "efficacy compared to warfarin", "setting": "[1]", "result": "more effective than warfarin"},
      {"measurement": "risk of bleeding compared to warfarin", "setting": "[1]", "result": "substantially higher risk of bleeding"}
    ]},
    {"compound": "CCOC(=O)CN[C@@H](C(=O)N1CC[C@H]1C(=O)NCc1ccc(/C(N)=N\\O)cc1)C1CCCCC1", "note": "[ximelagatran]", "values": [
      {"measurement": "hepatotoxicity", "setting": "[2]", "result": "hepatotoxic"}
    ]}
  ]
}
